Assay results reported in paper PMC5376056, “Developing Hypothetical Inhibition Mechanism of Novel Urea Transporter B Inhibitor” (Scientific Reports, 2014).

Columns and labels:
UT-B [1] = biological target: T1, UT-B (Mus musculus, UniProt Q8VHL0); set-up: method as in PMID 23486518; details: cited from earlier work
T1 construct: using erythrocytes, which originally express UT-B; endogenous in cells; host or cells: wild-type mouse erythrocytes (vein blood)
T1 sequence (Q8VHL0 1-384): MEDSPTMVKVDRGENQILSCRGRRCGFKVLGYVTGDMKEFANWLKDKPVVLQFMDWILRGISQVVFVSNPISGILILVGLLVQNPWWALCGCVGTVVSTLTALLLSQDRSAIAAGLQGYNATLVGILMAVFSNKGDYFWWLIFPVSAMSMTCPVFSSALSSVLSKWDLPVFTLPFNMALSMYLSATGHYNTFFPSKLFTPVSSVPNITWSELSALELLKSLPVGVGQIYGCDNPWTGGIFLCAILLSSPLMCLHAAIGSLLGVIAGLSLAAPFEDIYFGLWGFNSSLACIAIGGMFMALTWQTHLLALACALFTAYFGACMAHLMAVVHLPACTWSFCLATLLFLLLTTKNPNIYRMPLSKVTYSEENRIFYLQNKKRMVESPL

[2] = set-up: method as in PMID 23486518; details: cited from earlier work
UT-B [3] = biological target: T2, UT-B (Rattus norvegicus, UniProt P97689); set-up: method as in PMID 23486518; details: cited from earlier work
T2 construct: using erythrocytes, which originally express UT-B; endogenous in cells; host or cells: SD rat erythrocytes (vein blood)
T2 sequence (P97689 1-384): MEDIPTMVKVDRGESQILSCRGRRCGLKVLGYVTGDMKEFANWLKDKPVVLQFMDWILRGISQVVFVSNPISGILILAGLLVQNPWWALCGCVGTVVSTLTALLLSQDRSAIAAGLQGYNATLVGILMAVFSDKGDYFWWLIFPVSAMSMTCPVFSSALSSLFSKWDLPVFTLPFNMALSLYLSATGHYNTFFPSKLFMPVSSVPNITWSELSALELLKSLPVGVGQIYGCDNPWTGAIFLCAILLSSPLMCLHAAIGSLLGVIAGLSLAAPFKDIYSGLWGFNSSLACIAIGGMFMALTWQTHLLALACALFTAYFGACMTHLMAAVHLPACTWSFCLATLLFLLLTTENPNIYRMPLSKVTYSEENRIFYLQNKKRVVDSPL

UT-B [4] = biological target: T3, UT-B (Homo sapiens, UniProt Q13336); set-up: method as in PMID 23486518; details: cited from earlier work
T3 construct: using erythrocytes, which originally express UT-B; endogenous in cells; host or cells: human erythrocytes (vein blood)
T3 sequence (Q13336 1-389): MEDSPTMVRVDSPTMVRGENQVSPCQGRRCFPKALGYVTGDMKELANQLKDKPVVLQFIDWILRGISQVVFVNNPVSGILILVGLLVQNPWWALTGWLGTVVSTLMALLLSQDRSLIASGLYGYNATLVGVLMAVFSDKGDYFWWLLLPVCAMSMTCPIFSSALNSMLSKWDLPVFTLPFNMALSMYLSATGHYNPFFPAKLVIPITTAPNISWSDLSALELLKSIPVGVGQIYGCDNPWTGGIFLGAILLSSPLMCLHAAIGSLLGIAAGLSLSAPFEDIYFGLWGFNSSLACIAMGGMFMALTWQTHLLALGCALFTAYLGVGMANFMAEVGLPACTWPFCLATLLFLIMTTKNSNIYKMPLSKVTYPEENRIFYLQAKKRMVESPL

UT-B [5] = test system: UT-B; set-up: method as in PMID 23486518; details: rabbit; cited from earlier work
UT-B [6] = biological target: UT-B; set-up: method as in Ren et al., under review; details: pIC50 = -log(IC50) + 6; analogues of PU21; ref Ren et al., under review; cited from earlier work
UT-B [7] = biological target: T2, UT-B; experiment: erythrocyte osmotic lysis assay, rat erythrocytes; format: cell-based; details: mean ± s.e.m., n = 3
Method: (§1) Vein blood was collected from humans, SD rats, wild-type mice or UT-B-null mice as described previously.
(§2) High-throughput screening assay was performed for identification of UT-B inhibitors using erythrocytes, which originally express UT-B as described previously. Erythrocytes were diluted to a hematocrit value of 2% in hyperosmolar PBS containing 1.25 M acetamide and 5 mM glucose. Erythrocyte suspensions were preserved at room temperature for 2 h by periodic pipette mixture. Then, 99 μl erythrocyte suspension from a reservoir was added to each well of a 96-well round-bottom microplate, to which test compounds were added (1 μl, 10 μM final compound concentration, 1% final DMSO concentration). After 6 min of incubation, 20 μl of the erythrocyte suspension was added rapidly to each well of a 96-well black-walled plate containing 180 μl isomolar buffer (PBS containing 1% DMSO) in each well. Erythrocyte lysis was quantified from a single time point measure of absorbance at 710 nm wavelength with a plate reader (BioTek)[27].
(§3) The percentage of erythrocyte lysis in each test well was calculated using control values from the same plate as: % lysis = 100%. (Aneg-Atest)/(Aneg-Apos), where Atest is the absorbance value from a test well. Nonspecific UT-B inhibitor phloretin (Sigma-Aldrich, 700 μM final concentration) was added as an additional positive control.

UT-B [8] = biological target: T1, UT-B; experiment: erythrocyte osmotic lysis assay, mouse erythrocytes; format: cell-based; details: mean ± s.e.m., n = 3
Method: as §1, §2, §3

UT-B [9] = biological target: T3, UT-B; experiment: erythrocyte osmotic lysis assay, human erythrocytes; format: cell-based; details: mean ± s.e.m., n = 3
Method: as §1, §2, §3

Structure (SMILES)	IC50 (UT-B [7]) [µM]	IC50 (UT-B [8]) [µM]	IC50 (UT-B [9]) [µM]	UT-B inhibition activity in vitro (UT-B [1])	diuresis activity in vivo [2]	UT-B inhibition activity in vitro (UT-B [3])	UT-B inhibition activity in vitro (UT-B [4])	UT-B inhibition activity in vitro (UT-B [5])	pIC50 (UT-B [6])
CC(=O)c1sc2nc3ccc(C)cc3cc2c1N [PU-14]	–	–	–	potential inhibition activity	pharmacological diuresis activity	potential inhibition activity	potential inhibition activity	potential inhibition activity	5.454
CCN(Cc1ccccc1)[C@H](c1cc2c(C)cc(C)cc2[nH]c1=O)c1nnnn1C[C@@H]1CCCO1 [PU168, 3-((R)-(benzyl(ethyl)amino)(1-(((S)-tetrahydrofuran-2-yl)methyl)-1H-tetrazol-5-yl)methyl)-5,7-dimethylquinolin-2(1H)-one]	> 10	> 10	0.2 ± 0.03	–	–	–	–	–	–
Cn1c(=O)c2c(nc(SCC(=O)Nc3cccc(O)c3)n2Cc2ccccc2)n(C)c1=O [PU474, 2-((7-benzyl-1,3-dimethyl-2,6-dioxo-2,3,6,7-tetrahydro-1H-purin-8-yl)thio)-N-(3-hydroxyphenyl)acetamide]	> 10	> 10	0.28 ± 0.01	–	–	–	–	–	–

The remaining compounds from weak to strong by IC50 (UT-B [7]), led by results:

IC50 (UT-B [7]) [µM]	IC50 (UT-B [8]) [µM]	IC50 (UT-B [9]) [µM]	Structure (SMILES)	UT-B inhibition activity in vitro (UT-B [1])	diuresis activity in vivo [2]	UT-B inhibition activity in vitro (UT-B [3])	UT-B inhibition activity in vitro (UT-B [4])	UT-B inhibition activity in vitro (UT-B [5])	pIC50 (UT-B [6])
3.18 ± 0.24	4.13 ± 0.33	5.63 ± 0.82	Cc1nc2ccc(NC(=O)c3ccco3)cc2c(=O)n1Cc1ccc(Cl)cc1 [PU468, N-(3-(4-chlorobenzyl)-2-methyl-4-oxo-3,4-dihydroquinazolin-6-yl)furan-2-carboxamide]	–	–	–	–	–	–
2.62 ± 0.12	4.81 ± 0.4	3.78 ± 0.48	COc1ccc2nc3sc(C(C)=O)c(N)c3cc2c1 [PU21, 1-(3-amino-6-methoxythieno[2,3-b]quinolin-2-yl)ethanone]	–	–	–	–	–	–
